Test results as given in PMC3912015, “Synthetic Multivalent Antifungal Peptides Effective against Fungi” (PLoS ONE, 2014).
In brackets after ≈: the same amount, converted by molar mass. Where two headings read alike, the source gives them in different places. Bridge positions count the residues as written; N and C are the ends. Ends that are not written are not given here. Peptide text beside a SMILES is read from it. I, II: the chains in the order shown.

How the values were obtained:
in vitro = type: cell-based, human; conditions: human
Description: (§1) Immortalized normal human conjunctival epithelial cells (IOBANHC) were a gift from Yolanda Diebold at the University of Valladolid, Spain [31]. IOBA-NHC cells were cultured under standard conditions (humidified atmosphere of 5% CO2 at 37°C) in DMEM/F12 supplemented with 1 µg/ml bovine pancreas insulin, 2 ng/ml mouse epidermal growth factor, 0.1 µg/ml cholera toxin, 5 µg/ml hydrocortisone, 10% fetal bovine serum (FBS), 50 UI/ml penicillin, and 50 UI/ml streptomycin. Cells from passages 50–80 were used in all experiments. Every day, normal culture development was observed by phase-contrast microscopy. Cells were removed by gentle trypsin incubation at confluence and counted. They were seeded into 96 well culture plates (Corning, Schiphol-Rijk, The Netherlands) for microtitration analysis of flow cytotoxicity assay (∼10,000 cells/well). Cultures were kept at 37°C for 24 h. Subconfluent cells (culture surface covering nearly 70%) were then exposed to various peptide concentrations (0.22–225 µM). Cytotoxicity was measured periodically using MultiTox-Fluor Multiplex assay kit (Promega, WI, USA) by measuring the AFC fluorescence (λex = 485 and λem = 520 nm). We report the cell viability after 24 h incubation of the cells with the peptides since there was no detectable toxicity even after 8 h of incubation.

[1] = system: human conjunctival epithelial cells (IOBA-NHC); assay: in vitro; type: cell-based; conditions: 24 h
Description: as §1

C. albicans DF1976R = assay: microbe, parasite or virus in culture; type: cell-based; conditions: DF1976R, 48 h
Description: (§2) The yeast strains were cultivated and suspended in Sabouraud’s Dextrose (SD) broth diluted to one sixth at a starting OD600 = ∼0.08 in a flat-bottomed microtitre plate. A serial dilution of peptide in the same broth was mixed with the inoculum to give a final peptide concentration of 0.4–22 µM. The antifungal activity was assessed by monitoring the OD600 in cycles of 30 minutes and an orbital shaking at 100 rpm using an Infinite M200 microplate reader (Tecan Group Ltd., Switzerland) for 24/48 h at 37°C. Cultures without peptides were used as positive controls and broth alone or with 22 µM peptide served as negative controls. The minimum concentration required for complete inhibition was assessed by both visible observations as well as by measuring the OD600 and taken as the MIC. Each experiment was repeated in triplicates. For studying the effects of metal ions, SD broth was adjusted with appropriate concentrations of salts to yield a final concentration of 100 and 135 mM for NaCl and KCl and 0.5–2 mM for CaCl2 and MgCl2. MIC determinations were carried out as described above. C. albicans ATCC10231 cells and salts in broth were taken as a positive control. Salts alone (NaCl, KCl, and CaCl2 and MgCl2) in broth or with 22 µM peptide served as a negative control. The effect of 5% human serum on the activities of B4010 against two C. albicans clinical isolates was determined. The human male serum was centrifuged at 13,000 rpm for 10 mins in order to remove the lipids and the supernatant was collected. The MIC values against clinical isolates of C. albicans 2672R and C. albicans 1976R were determined both in standard medium (SD broth) as well as in standard medium containing 5% serum supernatant as before.

C. albicans ATCC2091 = assay: microbe, parasite or virus in culture; type: cell-based; conditions: ATCC2091, 48 h
Description: as §2

C. albicans ATCC24433 = assay: microbe, parasite or virus in culture; type: cell-based; conditions: ATCC24433, 48 h
Description: as §2

C. albicans ATCC10231 = assay: microbe, parasite or virus in culture; type: cell-based; conditions: ATCC10231, 48 h
Description: as §2

C. albicans DF2672R = assay: microbe, parasite or virus in culture; type: cell-based; conditions: DF2672R, 48 h
Description: as §2

[2] = type: biochemical
Description: Small unilamellar vesicles (SUVs) were prepared using PC/PE/PI or PS lipids (5∶2.5∶2.5) containing 15 wt% ergosterol or PC/Cholesterol (10∶1). For the preparation of PC/PE/PI or PS/Erg SUV, the lipids were dissolved in chloroform/methanol (2∶1, v/v) in a glass tube. Ergosterol was dissolved in same solvent and added to lipid mixture to make final ergosterol content of 15 wt%. The Lipid-ergosterol mixture was dried using nitrogen gas to form lipid layer. The film was hydrated in a buffer containing 20 mM PBS (pH 7), vortexed and sonicated. Each cycle of sonication (5 sec, 40°C) was followed by freezing in liquid nitrogen and thawing on a water bath kept at 37°C. The procedure was repeated 5–6 times until an optically clear dispersion appeared. The SUV was divided into two parts. To the first part 50 mM calcein was added and incubated for 1 h. The excess calcein was removed by injecting 100 µL of the calcien-loaded SUV’s into a Ultrahydrogel™ 250 (7.8 mm × 300 mm) column equilibrated with 20 mM PBS (pH 7.0) and eluted isochratically at a flow rate of 1 mL/min for 1.5 column volumes. The calcein-loaded liposomes were mixed with calcein-free liposome (1∶1) to adjust final liposome concentration. Peptide concentration was added to obtain 1∶30 or 1∶15 peptide:liposome ratio. Changes in the fluorescence signal after addition of peptide or Triton X-100 was measured on a PTI spectrofluorometer, using an excitation wavelength of 480 nm and emission wavelength of 512 nm. The Percentage calcein released at each time point was calculated using the equation, [drawing 1]
Where A0 is the observed fluorescence intensity upon addition of peptides, Amin is the average intensity at the baseline (before peptide addition), Amax is the average intensity at the saturation phase after adding 1% Triton X-100. Similar protocol was followed for the preparation of PC/Cholesterol SUVs.

F. solani ATCC36031 = assay: microbe, parasite or virus in culture; type: cell-based; conditions: ATCC36031, 48 h
[3] = read-out: MIC in µM against Ca DF1976R
[4] = read-out: MIC in µM against Ca 2091
[5] = read-out: MIC in µM against Ca 24433
[6] = read-out: MIC in µM against Ca 10231
[7] = read-out: MIC in µM against Ca 2672R

Row | Compound | viability at 24 h, 237 µM (in vitro) [%] | EC50 [1] [µM] | MIC (C. albicans DF1976R; [3]) [µM] | MIC (C. albicans ATCC2091; [4]) [µM] | MIC (C. albicans ATCC24433; [5]) [µM] | MIC (C. albicans ATCC10231; [6]) [µM] | MIC (C. albicans DF2672R; [7]) [µM] | % Calcein released from PC/PE/PS/Erg [2] [%] | MIC (F. solani ATCC36031) [µM] | MIC (C. albicans DF1976R; read-out: MIC) [µM] | MIC (C. albicans ATCC2091; read-out: MIC) [µM] | MIC (C. albicans ATCC24433; read-out: MIC) [µM] | MIC (C. albicans ATCC10231; read-out: MIC) [µM] | MIC (C. albicans DF2672R; read-out: MIC) [µM] | calcein release relative to B4010 [2]
1 | CC(C)[C@H](NC(=O)[C@H](CCCCN)NC(=O)[C@H](C)NC(=O)CNC(=O)[C@@H](N)CCCNC(=N)N)C(=O)N[C@H](C(=O)N[C@@H](CCCNC(=N)N)C(=O)N[C@@H](CCCNC(=N)N)C(=O)NCCCC[C@H](NC(=O)[C@H](CCCNC(=N)N)NC(=O)[C@H](CCCNC(=N)N)NC(=O)[C@@H](NC(=O)[C@@H](NC(=O)[C@H](CCCCN)NC(=O)[C@H](C)NC(=O)CNC(=O)[C@@H](N)CCCNC(=N)N)C(C)C)C(C)C)C(=O)NCCCC[C@H](NC(=O)[C@H](CCCCNC(=O)[C@H](CCCNC(=N)N)NC(=O)[C@H](CCCNC(=N)N)NC(=O)[C@@H](NC(=O)[C@@H](NC(=O)[C@H](CCCCN)NC(=O)[C@H](C)NC(=O)CNC(=O)[C@@H](N)CCCNC(=N)N)C(C)C)C(C)C)NC(=O)[C@H](CCCNC(=N)N)NC(=O)[C@H](CCCNC(=N)N)NC(=O)[C@@H](NC(=O)[C@@H](NC(=O)[C@H](CCCCN)NC(=O)[C@H](C)NC(=O)CNC(=O)[C@@H](N)CCCNC(=N)N)C(C)C)C(C)C)C(=O)N[C@@H](CCCCN)C(=O)O)C(C)C [B4010_R3A] (I: H-RGAKVVRRKKK-OH / II: H-RGAKVVRRK / III: H-RGAKVVRR / IV: H-RGAKVVRR; amide I:9-IV:C, I:10-II:C, II:9-III:C; N-terminus and C-terminus assumed) | 80.9 | > 237 | 0.4 (≈ 1.69 µg/mL) | 1.5 (≈ 6.33 µg/mL) | 1.5 (≈ 6.33 µg/mL) | 1.5 (≈ 6.33 µg/mL) | 0.4 (≈ 1.69 µg/mL) | ~63 |  |  |  |  |  |  | 
2 | CC(C)[C@H](NC(=O)[C@H](CCCCN)NC(=O)[C@H](CCCNC(=N)N)NC(=O)CNC(=O)[C@@H](N)CCCNC(=N)N)C(=O)N[C@H](C(=O)N[C@@H](CCCNC(=N)N)C(=O)N[C@@H](CCCNC(=N)N)C(=O)NCCCC[C@H](NC(=O)[C@H](CCCNC(=N)N)NC(=O)[C@H](CCCNC(=N)N)NC(=O)[C@@H](NC(=O)[C@@H](NC(=O)[C@H](CCCCN)NC(=O)[C@H](CCCNC(=N)N)NC(=O)CNC(=O)[C@@H](N)CCCNC(=N)N)C(C)C)C(C)C)C(=O)N[C@@H](CCCCN)C(=O)O)C(C)C [B2088] (I: H-RGRKVVRRKK-OH / II: H-RGRKVVRR; amide I:9-II:C; N-terminus and C-terminus assumed) |  |  |  |  |  |  |  |  | 10.9 (≈ 25 µg/mL) | 0.8 (≈ 1.83 µg/mL) | 1.4 (≈ 3.21 µg/mL) | 2.7 (≈ 6.19 µg/mL) | 5.5 (≈ 12.6 µg/mL) | 0.8 (≈ 1.83 µg/mL) | decreased calcein release
3 | RGRKVVRRKK [Monomer] |  |  |  |  |  |  |  |  | >78 |  |  |  | 78 | 78 | 
4 | CC(C)[C@H](N)C(=O)N[C@@H](CCCNC(=N)N)C(=O)NCC(=O)N[C@@H](CCCNC(=N)N)C(=O)N[C@H](C(=O)N[C@@H](CCCNC(=N)N)C(=O)N[C@@H](CCCCN)C(=O)N[C@@H](CCCNC(=N)N)C(=O)NCCCC[C@H](NC(=O)[C@H](CCCNC(=N)N)NC(=O)[C@H](CCCCN)NC(=O)[C@H](CCCNC(=N)N)NC(=O)[C@@H](NC(=O)[C@H](CCCNC(=N)N)NC(=O)CNC(=O)[C@H](CCCNC(=N)N)NC(=O)[C@@H](N)C(C)C)C(C)C)C(=O)NCCCC[C@H](NC(=O)[C@H](CCCCNC(=O)[C@H](CCCNC(=N)N)NC(=O)[C@H](CCCCN)NC(=O)[C@H](CCCNC(=N)N)NC(=O)[C@@H](NC(=O)[C@H](CCCNC(=N)N)NC(=O)CNC(=O)[C@H](CCCNC(=N)N)NC(=O)[C@@H](N)C(C)C)C(C)C)NC(=O)[C@H](CCCNC(=N)N)NC(=O)[C@H](CCCCN)NC(=O)[C@H](CCCNC(=N)N)NC(=O)[C@@H](NC(=O)[C@H](CCCNC(=N)N)NC(=O)CNC(=O)[C@H](CCCNC(=N)N)NC(=O)[C@@H](N)C(C)C)C(C)C)C(=O)N[C@@H](CCCCN)C(=O)O)C(C)C [Sc_B4010] (I: H-VRGRVRKRKKK-OH / II: H-VRGRVRKRK / III: H-VRGRVRKR / IV: H-VRGRVRKR; amide I:9-IV:C, I:10-II:C, II:9-III:C; N-terminus and C-terminus assumed) |  |  |  |  |  |  |  |  |  | 0.8 (≈ 3.65 µg/mL) | 2.7 (≈ 12.3 µg/mL) | 5.6 (≈ 25.6 µg/mL) | 5.6 (≈ 25.6 µg/mL) | 0.8 (≈ 3.65 µg/mL) | decreased calcein release
5 | RGRKVVRRKKRRVVKRGR [Linear Retrodimer] |  |  |  |  |  |  |  |  |  | 2.7 | 11 | 5.5 | 22 | 2.7 | 
6 | CC(C)[C@H](NC(=O)[C@H](CCCCN)NC(=O)[C@H](CCCNC(=N)N)NC(=O)CNC(=O)[C@H](C)N)C(=O)N[C@H](C(=O)N[C@@H](CCCNC(=N)N)C(=O)N[C@@H](CCCNC(=N)N)C(=O)NCCCC[C@H](NC(=O)[C@H](CCCNC(=N)N)NC(=O)[C@H](CCCNC(=N)N)NC(=O)[C@@H](NC(=O)[C@@H](NC(=O)[C@H](CCCCN)NC(=O)[C@H](CCCNC(=N)N)NC(=O)CNC(=O)[C@H](C)N)C(C)C)C(C)C)C(=O)NCCCC[C@H](NC(=O)[C@H](CCCCNC(=O)[C@H](CCCNC(=N)N)NC(=O)[C@H](CCCNC(=N)N)NC(=O)[C@@H](NC(=O)[C@@H](NC(=O)[C@H](CCCCN)NC(=O)[C@H](CCCNC(=N)N)NC(=O)CNC(=O)[C@H](C)N)C(C)C)C(C)C)NC(=O)[C@H](CCCNC(=N)N)NC(=O)[C@H](CCCNC(=N)N)NC(=O)[C@@H](NC(=O)[C@@H](NC(=O)[C@H](CCCCN)NC(=O)[C@H](CCCNC(=N)N)NC(=O)CNC(=O)[C@H](C)N)C(C)C)C(C)C)C(=O)N[C@@H](CCCCN)C(=O)O)C(C)C [B4010_R1A] (I: H-AGRKVVRRKKK-OH / II: H-AGRKVVRRK / III: H-AGRKVVRR / IV: H-AGRKVVRR; amide I:9-IV:C, I:10-II:C, II:9-III:C; N-terminus and C-terminus assumed) | 67.6 | > 237 | 0.75 (≈ 3.17 µg/mL) | 1.5 (≈ 6.33 µg/mL) | 5.9 (≈ 24.9 µg/mL) | 5.9 (≈ 24.9 µg/mL) | 1.5 (≈ 6.33 µg/mL) |  |  |  |  |  |  |  | 
